In the NIST ThermoML archive (doi:10.1021/je4008052):
Several values for one entry are separate records, joined by “and”; a condition that tells them apart may be missing. Identical values can stand only once.

Details: Liquid, Gas chromatography

CCCCCCCC/C=C\CCCCCCCCCCCCC [(Z)-tricos-9-ene]
Details	vapor or sublimation pressure
298.15 K	1.146e-07 kPa and 1.205e-07 kPa
308.15 K	5.055e-07 kPa and 5.324e-07 kPa
318.15 K	1.987e-06 kPa and 2.096e-06 kPa
328.15 K	7.042e-06 kPa and 7.434e-06 kPa
358.15 K	0.0001951 kPa and 0.0001844 kPa
368.15 K	0.0004985 kPa and 0.0004708 kPa
378.15 K	0.001195 kPa and 0.001128 kPa
388.15 K	0.0027 kPa and 0.002546 kPa
398.15 K	0.00545 kPa and 0.005782 kPa
408.15 K	0.01111 kPa and 0.01179 kPa
418.15 K	0.02163 kPa and 0.02297 kPa
428.15 K	0.04041 kPa and 0.04294 kPa
438.15 K	0.07269 kPa and 0.07727 kPa
448.15 K	0.1262 kPa and 0.1343 kPa
458.15 K	0.2121 kPa and 0.2258 kPa
468.15 K	0.346 kPa and 0.3684 kPa
478.15 K	0.5489 kPa and 0.5848 kPa
488.15 K	0.8487 kPa and 0.9046 kPa
498.15 K	1.281 kPa and 1.366 kPa
508.15 K	1.891 kPa and 2.018 kPa
518.15 K	2.735 kPa and 2.92 kPa
528.15 K	3.88 kPa and 4.144 kPa
538.15 K	5.406 kPa and 5.777 kPa
548.15 K	7.406 kPa and 7.919 kPa
558.15 K	9.989 kPa and 10.69 kPa
568.15 K	13.28 kPa and 14.21 kPa
578.15 K	17.41 kPa and 18.64 kPa
588.15 K	22.53 kPa and 24.14 kPa
598.15 K	28.81 kPa and 30.88 kPa
608.15 K	36.42 kPa and 39.06 kPa
618.15 K	45.55 kPa and 48.88 kPa
628.15 K	56.41 kPa and 60.56 kPa
638.15 K	69.19 kPa and 74.32 kPa
648.15 K	84.12 kPa and 90.4 kPa
656 K	104.81 kPa
658.15 K	101.4 kPa

CCCCCCCC/C=C/CCCCCCCCCCCCC [(E)-9-tricosene]
Details	vapor or sublimation pressure
298.15 K	1.041e-07 kPa and 1.013e-07 kPa
308.15 K	4.621e-07 kPa and 4.52e-07 kPa
318.15 K	1.828e-06 kPa and 1.795e-06 kPa
328.15 K	6.514e-06 kPa and 6.421e-06 kPa
338.15 K	2.089e-05 kPa and 2.112e-05 kPa
358.15 K	0.0001722 kPa and 0.000173 kPa
368.15 K	0.0004428 kPa and 0.0004438 kPa
378.15 K	0.001067 kPa
388.15 K	0.002425 kPa and 0.002419 kPa
398.15 K	0.005195 kPa and 0.00522 kPa
408.15 K	0.01062 kPa and 0.01069 kPa
418.15 K	0.02075 kPa and 0.02093 kPa
428.15 K	0.0389 kPa and 0.0393 kPa
438.15 K	0.07017 kPa and 0.07101 kPa
448.15 K	0.1222 kPa and 0.1238 kPa
458.15 K	0.2059 kPa and 0.209 kPa
468.15 K	0.3368 kPa and 0.3423 kPa
478.15 K	0.5356 kPa and 0.5451 kPa
488.15 K	0.83 kPa and 0.8458 kPa
498.15 K	1.256 kPa and 1.281 kPa
508.15 K	1.858 kPa and 1.898 kPa
518.15 K	2.693 kPa and 2.753 kPa
528.15 K	3.828 kPa and 3.918 kPa
538.15 K	5.344 kPa and 5.475 kPa
548.15 K	7.336 kPa and 7.523 kPa
558.15 K	9.914 kPa and 10.18 kPa
568.15 K	13.2 kPa and 13.56 kPa
578.15 K	17.34 kPa and 17.82 kPa
588.15 K	22.48 kPa and 23.12 kPa
598.15 K	28.79 kPa and 29.64 kPa
608.15 K	36.46 kPa and 37.56 kPa
618.15 K	45.67 kPa and 47.09 kPa
628.15 K	56.64 kPa and 58.44 kPa
638.15 K	69.59 kPa and 71.83 kPa
648.15 K	84.72 kPa and 87.52 kPa
655 K	99.7 kPa
656 K	98.29 kPa
